The values that follow are results of earlier work, collected in patent US7958848B2, “Method for artificial breeding of farmed sturgeon” (priority 2009, dated 2011).

The data set deals with goldfish. Particulars: 1-5 mg/kg body weight in combination with pituitary gland.

With `O=c1[nH]c2ccccc2n1CCCN1CCC(n2c(=O)[nH]c3cc(Cl)ccc32)CC1` [Domperidone], the “Induction of spawning and gonadal development” value was “induced spawning and gonadal development”.
